Patent US20240376121A1, “COMPOUNDS AND USES THEREOF” (Foghorn Therapeutics Inc., priority 2021, published 2024)

Tests used:
HiBit-BRM fusion protein = molecular target: T1, HiBit-BRM fusion protein (Homo sapiens, UniProt P51531); assay: HiBiT-BRM cell-based degradation assay (Nano-Glo HiBiT Lytic Detection); details: stable HeLa cell line expressing HiBiT-BRM, 24 h incubation; for BRM HiBit Degradation Maximum (%): top dose 30 μM; for DC50: read-out: BRM HiBit Degradation IC50
T1 construct: expressed in transfected cells
T1 sequence (P51531 whole entry, the tested form may be a part): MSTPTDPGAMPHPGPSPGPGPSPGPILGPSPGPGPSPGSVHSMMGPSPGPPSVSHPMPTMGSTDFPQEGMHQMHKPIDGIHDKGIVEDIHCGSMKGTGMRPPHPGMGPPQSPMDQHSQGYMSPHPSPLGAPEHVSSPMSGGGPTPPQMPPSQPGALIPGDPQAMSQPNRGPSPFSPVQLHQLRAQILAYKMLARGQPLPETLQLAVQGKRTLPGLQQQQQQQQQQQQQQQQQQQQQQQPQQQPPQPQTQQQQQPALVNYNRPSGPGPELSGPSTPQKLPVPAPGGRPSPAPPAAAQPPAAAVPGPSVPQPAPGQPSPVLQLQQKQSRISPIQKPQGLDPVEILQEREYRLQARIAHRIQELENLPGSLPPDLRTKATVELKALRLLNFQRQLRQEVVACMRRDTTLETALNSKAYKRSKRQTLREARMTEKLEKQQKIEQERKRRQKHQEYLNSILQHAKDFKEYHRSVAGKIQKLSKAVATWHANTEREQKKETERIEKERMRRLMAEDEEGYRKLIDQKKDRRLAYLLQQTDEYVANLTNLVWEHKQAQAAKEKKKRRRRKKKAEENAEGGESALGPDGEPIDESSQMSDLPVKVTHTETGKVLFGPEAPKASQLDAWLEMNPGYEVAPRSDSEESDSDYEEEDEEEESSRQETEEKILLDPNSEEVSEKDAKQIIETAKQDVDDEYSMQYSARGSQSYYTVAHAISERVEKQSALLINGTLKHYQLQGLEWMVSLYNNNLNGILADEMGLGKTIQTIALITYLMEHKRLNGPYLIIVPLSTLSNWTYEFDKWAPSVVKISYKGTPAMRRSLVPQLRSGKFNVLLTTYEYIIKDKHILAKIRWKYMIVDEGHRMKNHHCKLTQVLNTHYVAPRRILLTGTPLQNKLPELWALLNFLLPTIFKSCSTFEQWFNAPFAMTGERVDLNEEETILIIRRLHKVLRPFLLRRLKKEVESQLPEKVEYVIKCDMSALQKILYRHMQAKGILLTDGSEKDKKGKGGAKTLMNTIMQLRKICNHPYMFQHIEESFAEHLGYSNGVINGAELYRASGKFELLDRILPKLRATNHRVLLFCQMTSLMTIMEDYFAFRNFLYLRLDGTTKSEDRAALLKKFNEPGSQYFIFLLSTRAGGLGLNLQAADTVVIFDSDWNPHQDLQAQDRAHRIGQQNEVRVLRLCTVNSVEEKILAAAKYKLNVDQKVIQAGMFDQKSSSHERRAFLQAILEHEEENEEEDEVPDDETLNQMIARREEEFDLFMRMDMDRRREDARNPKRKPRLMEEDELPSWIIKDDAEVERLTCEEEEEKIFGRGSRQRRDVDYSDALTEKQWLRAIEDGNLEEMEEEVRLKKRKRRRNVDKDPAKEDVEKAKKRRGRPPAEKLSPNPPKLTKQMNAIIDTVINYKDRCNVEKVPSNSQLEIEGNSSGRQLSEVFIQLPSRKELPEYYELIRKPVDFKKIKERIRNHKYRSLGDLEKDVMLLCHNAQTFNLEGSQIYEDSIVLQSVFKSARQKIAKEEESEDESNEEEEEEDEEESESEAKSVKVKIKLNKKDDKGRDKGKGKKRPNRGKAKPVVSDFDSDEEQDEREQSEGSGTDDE
In short: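 Percent BRM loss was derived from HiBiT luminescence relative to DMSO-treated cells and cells given 2 μM of a known BRM/BRG1 degrader. Treatment lasted 24 h in HiBiT-BRM HeLa cells, with a top final concentration of 30 μM.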

[1] = molecular target: T2, HiBit-BRG1 fusion protein (Homo sapiens, UniProt P51532); assay: HiBiT-BRG1 cell-based degradation assay (Nano-Glo HiBiT Lytic Detection); details: stable HeLa cell line expressing HiBit-BRG1 and LgBit, 24 h incubation; for Dmax: top dose 30 μM, read-out: BRG1 HiBit Degradation Maximum (%); for DC50: read-out: BRMG1 HiBit Degradation IC50
T2 construct: expressed in transfected cells
T2 sequence (P51532 whole entry, the tested form may be a part): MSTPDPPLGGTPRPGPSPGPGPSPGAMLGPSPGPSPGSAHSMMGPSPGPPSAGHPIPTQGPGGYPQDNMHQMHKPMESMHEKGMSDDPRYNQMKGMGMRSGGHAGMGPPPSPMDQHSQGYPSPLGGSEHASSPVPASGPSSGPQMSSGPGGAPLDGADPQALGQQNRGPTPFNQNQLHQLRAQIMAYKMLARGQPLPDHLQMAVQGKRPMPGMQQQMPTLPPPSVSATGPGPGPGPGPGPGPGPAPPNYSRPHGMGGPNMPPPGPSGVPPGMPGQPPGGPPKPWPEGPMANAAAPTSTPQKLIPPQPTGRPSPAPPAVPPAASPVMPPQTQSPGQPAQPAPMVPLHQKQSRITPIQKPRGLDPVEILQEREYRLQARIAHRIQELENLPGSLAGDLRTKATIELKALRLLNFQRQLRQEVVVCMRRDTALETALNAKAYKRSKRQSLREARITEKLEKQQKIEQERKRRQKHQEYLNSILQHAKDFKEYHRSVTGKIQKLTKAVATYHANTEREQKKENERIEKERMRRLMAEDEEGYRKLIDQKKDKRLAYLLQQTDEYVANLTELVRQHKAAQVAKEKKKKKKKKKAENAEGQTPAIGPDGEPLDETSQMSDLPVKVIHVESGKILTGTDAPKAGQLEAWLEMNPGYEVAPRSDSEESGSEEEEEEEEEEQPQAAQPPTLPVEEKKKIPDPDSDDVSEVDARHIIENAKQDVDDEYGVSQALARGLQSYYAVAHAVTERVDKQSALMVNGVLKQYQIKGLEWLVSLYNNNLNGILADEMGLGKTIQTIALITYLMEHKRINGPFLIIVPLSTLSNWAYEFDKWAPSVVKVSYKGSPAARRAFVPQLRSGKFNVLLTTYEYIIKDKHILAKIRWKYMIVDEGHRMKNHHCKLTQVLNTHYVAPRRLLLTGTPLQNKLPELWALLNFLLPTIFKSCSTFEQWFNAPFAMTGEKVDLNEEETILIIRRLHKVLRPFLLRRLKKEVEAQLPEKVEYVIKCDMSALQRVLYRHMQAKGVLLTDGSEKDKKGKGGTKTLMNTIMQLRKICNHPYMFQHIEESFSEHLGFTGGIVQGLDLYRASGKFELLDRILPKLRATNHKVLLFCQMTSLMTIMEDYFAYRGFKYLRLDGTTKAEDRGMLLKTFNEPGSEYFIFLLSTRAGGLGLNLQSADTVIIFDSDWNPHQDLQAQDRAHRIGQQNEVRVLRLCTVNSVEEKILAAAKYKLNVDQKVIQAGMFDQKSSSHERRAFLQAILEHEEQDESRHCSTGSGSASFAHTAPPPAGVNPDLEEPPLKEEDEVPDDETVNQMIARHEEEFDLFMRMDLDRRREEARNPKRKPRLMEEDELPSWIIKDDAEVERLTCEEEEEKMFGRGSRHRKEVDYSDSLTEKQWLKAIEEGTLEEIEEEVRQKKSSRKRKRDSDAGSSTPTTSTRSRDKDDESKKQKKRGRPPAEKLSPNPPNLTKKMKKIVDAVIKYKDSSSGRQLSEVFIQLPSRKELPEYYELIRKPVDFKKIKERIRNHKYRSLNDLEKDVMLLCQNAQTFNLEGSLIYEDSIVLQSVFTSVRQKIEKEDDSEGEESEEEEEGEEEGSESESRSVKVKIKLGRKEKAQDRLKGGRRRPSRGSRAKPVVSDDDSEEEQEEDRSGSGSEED
In short: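 Degradation was scored from HiBiT lytic luminescence, scaled between DMSO-treated wells and wells given 2 μM of a standard BRM/BRG1 degrader. Cells were a stable HeLa HiBiT-BRG1/LgBiT line dosed for 24 h, ten concentrations in 3-fold steps from 30 μM, in duplicate.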

Row | Structure (SMILES) | BRM HiBit Degradation Maximum (%) (HiBit-BRM fusion protein) | DC50 (HiBit-BRM fusion protein) [nM] | Dmax [1] [%] | DC50 [1] [nM]
1 | Cc1ncsc1-c1ccc(CNC(=O)[C@@H]2C[C@@H](O)CN2C(=O)[C@@H](NC(=O)[C@H]2CC[C@H](c3cnc(N4CCC(c5sc6nnc(-c7ccccc7O)cc6c5C)CC4)nc3)CC2)C(C)(C)C)cc1 [Compound 85, (2S,4R)-4-hydroxy-1-((S)-2-((1r,4S)-4-(2-(4-(3-(2-hydroxyphenyl)-5-methylthieno[2,3-c]pyridazin-6-yl)piperidin-1-yl)pyrimidin-5-yl)cyclohexane-1-carboxamido)-3,3-dimethylbutanoyl)-N-(4-(4-methylthiazol-5-yl)benzyl)pyrrolidine-2-carboxamide] | A (“A” indicates maximum degradation ≥ 75%) | ≥ 10 | ≥ 75 | ≥ 100
2 | Cc1ncsc1-c1ccc(CNC(=O)[C@@H]2C[C@@H](O)CN2C(=O)[C@@H](NC(=O)[C@H]2CC[C@@H](c3cnc(N4CCC(c5sc6nnc(-c7ccccc7O)cc6c5C)CC4)nc3)CC2)C(C)(C)C)cc1 [Compound 86, (2S,4R)-4-hydroxy-1-((S)-2-((1s,4R)-4-(2-(4-(3-(2-hydroxyphenyl)-5-methylthieno[2,3-c]pyridazin-6-yl)piperidin-1-yl)pyrimidin-5-yl)cyclohexane-1-carboxamido)-3,3-dimethylbutanoyl)-N-(4-(4-methylthiazol-5-yl)benzyl)pyrrolidine-2-carboxamide] | C (“C” indicates maximum degradation < 50%) | ≥ 1000 | < 50 | ≥ 1000
3 | Cc1ncsc1-c1ccc([C@H](C)NC(=O)[C@@H]2C[C@@H](O)CN2C(=O)[C@@H](c2cc(N3CCC(N4CCC(c5cc6nnc(-c7ccccc7O)cc6s5)CC4)CC3)no2)C(C)C)cc1 [Compound 87, (2S,4R)-4-hydroxy-1-((R)-2-(3-(4-(3-(2-hydroxyphenyl)thieno[3,2-c]pyridazin-6-yl)-[1,4′-bipiperidin]-1′-yl)isoxazol-5-yl)-3-methylbutanoyl)-N-((S)-1-(4-(4-methylthiazol-5-yl)phenyl)ethyl)pyrrolidine-2-carboxamide] | A (“A” indicates maximum degradation ≥ 75%) | < 10 | < 50 | ≥ 1000
4 | Cc1ncsc1-c1ccc([C@H](C)NC(=O)[C@@H]2C[C@@H](O)CN2C(=O)[C@@H](c2cc(OCCN3CC4(CC(c5sc6nnc(-c7ccccc7O)cc6c5C)C4)C3)no2)C(C)C)cc1 [Compound 88, (2S,4R)-4-hydroxy-1-((R)-2-(3-(2-(6-(3-(2-hydroxyphenyl)-5-methylthieno[2,3-c]pyridazin-6-yl)-2-azaspiro[3.3]heptan-2-yl)ethoxy)isoxazol-5-yl)-3-methylbutanoyl)-N-((S)-1-(4-(4-methylthiazol-5-yl)phenyl)ethyl)pyrrolidine-2-carboxamide] | A (“A” indicates maximum degradation ≥ 75%) | ≥ 10 | < 50 | ≥ 1000
5 | Cc1ncsc1-c1ccc([C@H](C)NC(=O)[C@@H]2C[C@@H](O)CN2C(=O)[C@@H](c2cc(OCCN3CCC(c4c(C)sc5nnc(-c6ccccc6O)cc45)CC3)no2)C(C)C)cc1 [Compound 89, (2S,4R)-4-hydroxy-1-((R)-2-(3-(2-(4-(3-(2-hydroxyphenyl)-6-methylthieno[2,3-c]pyridazin-5-yl)piperidin-1-yl)ethoxy)isoxazol-5-yl)-3-methylbutanoyl)-N-((S)-1-(4-(4-methylthiazol-5-yl)phenyl)ethyl)pyrrolidine-2-carboxamide] | C (“C” indicates maximum degradation < 50%) | ≥ 1000 | < 50 | ≥ 1000
6 | Cc1ncsc1-c1ccc([C@H](C)NC(=O)[C@@H]2C[C@@H](O)CN2C(=O)[C@@H](c2cc(OCCN3CCC(c4sc5nnc(-c6ccccc6O)cc5c4Cl)CC3)no2)C(C)C)cc1 [Compound 90, (2S,4R)-1-((R)-2-(3-(2-(4-(5-chloro-3-(2-hydroxyphenyl)thieno[2,3-c]pyridazin-6-yl)piperidin-1-yl)ethoxy)isoxazol-5-yl)-3-methylbutanoyl)-4-hydroxy-N-((S)-1-(4-(4-methylthiazol-5-yl)phenyl)ethyl)pyrrolidine-2-carboxamide] | A (“A” indicates maximum degradation ≥ 75%) | ≥ 10 | < 50 | ≥ 1000
7 | Cc1ncsc1-c1ccc([C@H](C)NC(=O)[C@@H]2C[C@@H](O)CN2C(=O)[C@@H](c2cc(OCC(=O)N3CCc4sc5nnc(-c6ccccc6O)cc5c4C3)no2)C(C)C)cc1 [Compound 91, (2S,4R)-4-hydroxy-1-((R)-2-(3-(2-(3-(2-hydroxyphenyl)-7,8-dihydropyrido[3′,4′:4, 5]thieno[2,3-c]pyridazin-6(5H)-yl)-2-oxoethoxy)isoxazol-5-yl)-3-methylbutanoyl)-N-((S)-1-(4-(4-methylthiazol-5-yl)phenyl)ethyl)pyrrolidine-2-carboxamide] | C (“C” indicates maximum degradation < 50%) | ≥ 1000 | < 50 | ≥ 1000
8 | Cc1ncsc1-c1ccc([C@H](C)NC(=O)[C@@H]2C[C@@H](O)CN2C(=O)[C@@H](c2cc(N3CCC(CN4CCc5sc6nnc(-c7ccccc7O)cc6c5C4)CC3)no2)C(C)C)cc1 [Compound 92, (2S,4R)-4-hydroxy-1-((R)-2-(3-(4-((3-(2-hydroxyphenyl)-7,8-dihydropyrido[3′,4′:4,5]thieno[2,3-c]pyridazin-6(5H)-yl)methyl)piperidin-1-yl)isoxazol-5-yl)-3-methylbutanoyl)-N-((S)-1-(4-(4-methylthiazol-5-yl)phenyl)ethyl)pyrrolidine-2-carboxamide] | C (“C” indicates maximum degradation < 50%) | ≥ 1000 | ≥ 50 | ≥ 1000
9 | Cc1ncsc1-c1ccc([C@H](C)NC(=O)[C@@H]2C[C@@H](O)CN2C(=O)[C@@H](c2cc(OCC(=O)N3CCC(c4sc5nnc(-c6ccccc6O)cc5c4C)CC3)no2)C(C)C)cc1 [Compound 93, (2S,4R)-4-hydroxy-1-((R)-2-(3-(2-(4-(3-(2-hydroxyphenyl)-5-methylthieno[2,3-c]pyridazin-6-yl)piperidin-1-yl)-2-oxoethoxy)isoxazol-5-yl)-3-methylbutanoyl)-N-((S)-1-(4-(4-methylthiazol-5-yl)phenyl)ethyl)pyrrolidine-2-carboxamide] | A (“A” indicates maximum degradation ≥ 75%) | ≥ 10 | < 50 | ≥ 1000
10 | Cc1ncsc1-c1ccc([C@H](C)NC(=O)[C@@H]2C[C@@H](O)CN2C(=O)[C@@H](c2cc(N3CCC(CN4CCC(c5sc6nnc(-c7ccccc7O)cc6c5C)CC4)CC3)no2)C(C)C)cc1 [Compound 94, (2S,4R)-4-hydroxy-1-((R)-2-(3-(4-((4-(3-(2-hydroxyphenyl)-5-methylthieno[2,3-c]pyridazin-6-yl)piperidin-1-yl)methyl)piperidin-1-yl)isoxazol-5-yl)-3-methylbutanoyl)-N-((S)-1-(4-(4-methylthiazol-5-yl)phenyl)ethyl)pyrrolidine-2-carboxamide] | A (“A” indicates maximum degradation ≥ 75%) | < 10 | < 50 | ≥ 1000
11 | Cc1ncsc1-c1ccc([C@H](C)NC(=O)[C@@H]2C[C@@H](O)CN2C(=O)[C@@H](c2cc(OCCCN3CCC(c4sc5nnc(-c6ccccc6O)cc5c4C)CC3)no2)C(C)C)cc1 [Compound 95, (2S,4R)-4-hydroxy-1-((R)-2-(3-(3-(4-(3-(2-hydroxyphenyl)-5-methylthieno[2,3-c]pyridazin-6-yl)piperidin-1-yl)propoxy)isoxazol-5-yl)-3-methylbutanoyl)-N-((S)-1-(4-(4-methylthiazol-5-yl)phenyl)ethyl)pyrrolidine-2-carboxamide] | A (“A” indicates maximum degradation ≥ 75%) | < 10 | < 50 | ≥ 1000
12 | Cc1ncsc1-c1ccc([C@H](C)NC(=O)[C@@H]2C[C@@H](O)CN2C(=O)[C@@H](c2cc(N3CCC(N4CCC(c5sc6nnc(-c7ccccc7O)cc6c5C)CC4)CC3)no2)C(C)C)cc1 [Compound 96, (2S,4R)-4-hydroxy-1-((R)-2-(3-(4-(3-(2-hydroxyphenyl)-5-methylthieno[2,3-c]pyridazin-6-yl)-[1,4'-bipiperidin]-1'-yl)isoxazol-5-yl)-3-methylbutanoyl)-N-((S)-1-(4-(4-methylthiazol-5-yl)phenyl)ethyl)pyrrolidine-2-carboxamide] | A (“A” indicates maximum degradation ≥ 75%) | < 10 | < 50 | ≥ 1000
13 | Cc1ncsc1-c1ccc([C@H](C)NC(=O)[C@@H]2C[C@@H](O)CN2C(=O)[C@@H](c2cc(OCCN3CCC(c4cc5nnc(-c6ccccc6O)cc5s4)CC3)no2)C(C)C)cc1 [Compound 97, (2S,4R)-4-hydroxy-1-((R)-2-(3-(2-(4-(3-(2-hydroxyphenyl)thieno[3,2-c]pyridazin-6-yl)piperidin-1-yl)ethoxy)isoxazol-5-yl)-3-methylbutanoyl)-N-((S)-1-(4-(4-methylthiazol-5-yl)phenyl)ethyl)pyrrolidine-2-carboxamide] | A (“A” indicates maximum degradation ≥ 75%) | < 10 | < 50 | ≥ 1000
